Assay results taken from US12565522B2, “Micropeptide HMMW and application thereof” (NANJING ANJI BIOTECHNOLOGY CO., LTD., priority 2019, dated 2026).
No end group written: not given here.

How the values were obtained:
Experiment in all cases: cells
Type in all cases: cell-based, human
Conditions in all cases: 1 to 32 μM, vs negative control, dose-dependent
[1] = system: A431 cells of skin cancer
Protocol: (§1) After SCC4 cells of head and neck cancer, SW579 cells of thyroid cancer, A549 cells of lung cancer, TE13 cells of esophageal squamous cell carcinoma, MGC803 cells of stomach cancer, MDA-MB-231 cells of breast cancer, UOK262 cells of kidney cancer and A431 cells of skin cancer of human were cultured in a 37 DEG C. 5% CO2 incubator until the density was 90%, they were digested and collected by trypsin, the cells were re-suspended in a culture solution and counted under a microscope, the concentration of the cells was adjusted to 3.0×10^4 cells/mL, and the cell suspension was inoculated to 96-well plates, 100 μL per well, and cultured in a 37 DEG C. 5% CO2 incubator overnight. After the cells were completely adherent, different doses of micropeptides HMMW I to IX were added as drug groups, taxol was used as a positive control group, and the culture solution without any drug was used as a blank control group. They were diluted with the culture solution till predetermined concentrations. The diluted solutions were added to 96-well plates, respectively, 100 μL per well, and incubated in a 37 DEG C. 5% CO2 incubator for 48 h. 20 μL of 5 mg/mL MTT was added to each well of the 96-well plates, and the culture was continued for 4 h. The culture medium was sucked away, and 100 μL of DMSO was added to each well for dissolution. Absorbance was detected by ELIASA at detection wavelength 570 nm and reference wavelength 630 nm, and proliferation inhibition (PI) was calculated according to Formula PI (%)=1−drug group/negative group. The test was independently repeated three times. The results obtained from the test were expressed with mean±SD and statistical t test was done. *P<0.05 means significant difference, and **P<0.01 means very significant difference.

[2] = system: A549 cells of lung cancer
Protocol: as §1

[3] = system: MDA-MB-231 cells of breast cancer
Protocol: as §1

[4] = system: MGC803 cells of stomach cancer
Protocol: as §1

[5] = system: SCC4 cells of head and neck cancer
Protocol: as §1

[6] = system: SW579 cells of thyroid cancer
Protocol: as §1

[7] = system: TE13 cells of esophageal squamous cell carcinoma
Protocol: as §1

[8] = system: UOK262 cells of kidney cancer
Protocol: as §1

Measured: inhibition of proliferation

MERAGVPGFSPRRSSVEAKMQSTSCSVRKSSTVTAWPAVVLLLSWGQRRGG-OH [HMMW-I]
significantly inhibit: all assays above
